This is an account of results in PMC8144490, “Synthesis and Cytotoxic Activity of Novel Indole Derivatives and Their in silico Screening on Spike Glycoprotein of SARS-CoV-2” (Frontiers in Molecular Biosciences, 2021).

Read-outs that look alike come from different tables or passages of the source.

What all share (assay type): cell-based
Experiment [1] deals with HeLa (Cervical) cancer cell line. Kind of experiment: Cytotoxic activity (United States NCI protocol), HeLa. The note with it: Homo sapiens; for IC (TGI): read-out: TGI. On the procedure:
(§1) The cytotoxicity experiment was performed according to the United States NCI protocol, previously reported method. A detailed experimental procedure was given in Supplementary Material ([Premnath et al., 2015]).
(§2) The newly prepared compounds 1a–1j are examined for their cytotoxic activity according to the United States NCI protocol, which was a previously reported method ([Chadha and Silakari, 2017]). The 50% growth inhibition (GI50), tumor growth inhibition (TGI), and lethal concentration (LC50) values were determined. […] Doxorubicin was used as a standard drug. None of the tested derivatives had shown significant activity toward the cancer cell lines. The compounds were also evaluated for their possible cytotoxicity in human embryonic kidney cells (HEK-293), lung cells (MRC-5), and liver cells (LO2) by employing MTT assay. […] The results of cytotoxic screening of compounds (1a–1j) are shown in Table 2, and in vitro cytotoxicity of indole derivatives (1a–1j) on normal cells are shown in Table 3.

The subject of experiment [2] is MCF-7 (Breast) cancer cell line. The experiment is described as follows: Cytotoxic activity (United States NCI protocol), MCF-7. Particulars: Homo sapiens; for GI50: 50% growth inhibition; for IC (TGI): tumor growth inhibition. On the procedure:
as §1, §2

Experiment [3] has as its system lung cells (MRC5). Kind of experiment: In vitro cytotoxicity on normal cells, MTT assay, MRC5. The note with it: Homo sapiens. On the procedure: as §2
(§3) None of the tested derivatives had shown significant activity toward the cancer cell lines. The compounds were also evaluated for the possible cytotoxicity in human embryonic kidney cells (HEK-293), lung cells (MRC5), and liver cells (LO2) by employing MTT assay.

Experiment [4] relates to HepG2 (Liver) cancer cell line. Kind of experiment: Cytotoxic activity (United States NCI protocol), HepG2. Particulars: Homo sapiens. The method, then:
as §1, §2

The subject of experiment [5] is human embryonic kidney cells (HEK-293). Kind of experiment: In vitro cytotoxicity on normal cells, MTT assay, HEK-293. Particulars: HEK293, HEK-293 normal kidney cells. The method, then: as §2, §3
For orientation: Tetrazolium dyes change colour on reduction, which living cells bring about.

For experiment [6], the system named is liver cells (LO2). Kind of experiment: In vitro cytotoxicity on normal cells, MTT assay, LO2. The method, then: as §2, §3
Where [7] appears, read: 50% growth inhibition, read-out: GI50.
Setting [8] is: lethal concentration, read-out: LC50 (the source's name).
Where [9] appears, read: MCF7, MCF-7, lethal concentration, read-out: LC50 (the source's name).
Where [10] appears, read: HepG2, lethal concentration, read-out: LC50.
The mark [11] stands for this setting: HepG2, tumor growth inhibition, read-out: TGI.

Take `O=[N+]([O-])c1cccc(C(N/N=C/c2ccco2)n2ccc3ccccc32)c1` (centres unmarked) [Compound 1b]: the GI50 is 51 µM in experiment [1] (setting [7]); 46.1 µM in experiment [2] (MCF7, MCF-7); 42.2 µM in experiment [4] (HepG2). The CC50 in experiment [1] (setting [8]) and in experiment [2] (setting [9]) was greater than 100 µM each time. Besides, the IC (TGI) in experiment [1] (tumor growth inhibition) worked out at 89.2 µM; in experiment [2] (MCF7, MCF-7), 85.1 µM; in experiment [4] (setting [11]), 23.1 µM. The IC50 is 67.2 µM in experiment [3], 62.1 µM in experiment [5] and 72.2 µM in experiment [6]. Further, the LC50 (NCI lethal concentration 50%) in experiment [4] (setting [10]) was found to be 56.8 µM.
For the compound `Clc1ccc(C(N/N=C/c2ccco2)n2ccc3ccccc32)cc1` (centres unmarked) [Compound 1d], the GI50 in experiment [1] (setting [7]) was 8.9 µM; in experiment [2] (MCF7, MCF-7), 0.89 µM; in experiment [4] (HepG2), 1 µM. Further, the values for the CC50 in experiment [1] (setting [8]) and in experiment [2] (setting [9]) were 0.5 µM and 65 µM, respectively. The IC (TGI) in experiment [1] (tumor growth inhibition) came to 6.8 µM; in experiment [2] (MCF7, MCF-7), 9.3 µM; in experiment [4] (setting [11]), 0.25 µM. Besides, the figures for the IC50 in experiment [3], in experiment [5] and in experiment [6] were 56.2 µM, 79.1 µM and 66.2 µM, respectively. Also, the LC50 (NCI lethal concentration 50%) in experiment [4] (setting [10]) was found to be 54 µM.
Consider `Oc1ccccc1C(N/N=C/c1ccco1)n1ccc2ccccc21` (centres unmarked) [Compound 1f], for which the GI50 was 21.6 µM in experiment [1] (setting [7]); 18.6 µM in experiment [2] (MCF7, MCF-7); 29.1 µM in experiment [4] (HepG2). In addition, the CC50 in experiment [1] (setting [8]) is 77.4 µM; in experiment [2] (setting [9]) it was 42.3 µM. Further, the IC (TGI) in experiment [1] (tumor growth inhibition) turned out to be 54.7 µM; in experiment [2] (MCF7, MCF-7), 41.8 µM; in experiment [4] (setting [11]), 46.8 µM. Also, the figures for the IC50 in experiment [3], in experiment [5] and in experiment [6] were 51.2 µM, 66.2 µM and 68.2 µM, respectively. In addition, in experiment [4] (setting [10]), the LC50 (NCI lethal concentration 50%) is 57.5 µM.
Take `COc1cccc2c1C(=O)c1c(O)c3c(c(O)c1C2=O)C[C@@](O)(C(=O)CO)C[C@@H]3O[C@H]1C[C@H](N)[C@H](O)[C@H](C)O1` [Doxorubicin, reference compound]: the 50% growth inhibitory concentration (GI50) was 0.05 µM in experiment [1] (setting [7]); 0.02 µM in experiment [2] (MCF7, MCF-7); 0.01 µM in experiment [4] (HepG2). Also, the values for the CC50 in experiment [1] (setting [8]) and in experiment [2] (setting [9]) were 0.88 µM and 0.74 µM, respectively. Further, the IC (TGI) in experiment [1] (tumor growth inhibition) amounted to 0.41 µM; in experiment [2] (MCF7, MCF-7) it was 0.21 µM; in experiment [4] (setting [11]), 0.13 µM.
With `C(=N\NCn1ccc2ccccc21)/c1ccco1` [Compound 1j], the GI50 was 2.3 µM in experiment [1] (setting [7]); 56 µM in experiment [2] (MCF7, MCF-7); 40.3 µM in experiment [4] (HepG2). For the same compound, the CC50 was 48.3 µM in experiment [1] (setting [8]) and 78.6 µM in experiment [2] (setting [9]). In addition, the IC (TGI) in experiment [1] (tumor growth inhibition) stood at 58.3 µM; in experiment [2] (MCF7, MCF-7), 49.3 µM; in experiment [4] (setting [11]), 45.3 µM. Further, the figures for the IC50 in experiment [3], in experiment [5] and in experiment [6] were 75.1 µM, 52.7 µM and 70.1 µM, respectively. The LC50 (NCI lethal concentration 50%) in experiment [4] (setting [10]) was determined as 66.8 µM.
As for `CN(C)c1ccc(C(N/N=C/c2ccco2)n2ccc3ccccc32)cc1` (centres unmarked) [Compound 1h], the GI50 in experiment [1] (setting [7]) came out at 52.9 µM; in experiment [2] (MCF7, MCF-7), 12.9 µM; in experiment [4] (HepG2) it was 21.3 µM. The CC50 in experiment [1] (setting [8]) is greater than 100 µM; in experiment [2] (setting [9]), 10.3 µM. For the same compound, the IC (TGI) in experiment [1] (tumor growth inhibition) was 81.3 µM; in experiment [2] (MCF7, MCF-7), 45.3 µM; in experiment [4] (setting [11]) it was 41 µM. The IC50 in experiment [3] stood at 66.3 µM; in experiment [5] it was 67 µM; in experiment [6] it was 58.2 µM. For the same compound, the LC50 (NCI lethal concentration 50%) in experiment [4] (setting [10]) stood at 72.1 µM.
As to `COc1ccc(C(N/N=C/c2ccco2)n2ccc3ccccc32)cc1` (centres unmarked) [Compound 1e], the GI50 in experiment [1] (setting [7]) stood at 34.2 µM; in experiment [2] (MCF7, MCF-7) it was 24.4 µM; in experiment [4] (HepG2), 15.9 µM. In addition, the CC50 in experiment [1] (setting [8]) was greater than 100 µM; in experiment [2] (setting [9]), 66.3 µM. Moreover, the IC (TGI) in experiment [1] (tumor growth inhibition) stood at 72.1 µM; in experiment [2] (MCF7, MCF-7) it was 59.3 µM; in experiment [4] (setting [11]) it was 38.2 µM. The IC50 came out at 72.8 µM in experiment [3], 57.1 µM in experiment [5] and 56 µM in experiment [6]. The LC50 (NCI lethal concentration 50%) in experiment [4] (setting [10]) is 44.8 µM.
Consider `COc1cc(C(N/N=C/c2ccco2)n2ccc3ccccc32)ccc1O` (centres unmarked) [Compound 1g], for which the GI50 in experiment [1] (setting [7]) came out at 37.9 µM; in experiment [2] (MCF7, MCF-7), 34 µM; in experiment [4] (HepG2), 48 µM. For the same compound, the CC50 in experiment [1] (setting [8]) was 58.9 µM; in experiment [2] (setting [9]), 30.5 µM. The IC (TGI) came out at 51.9 µM in experiment [1] (tumor growth inhibition); 67.4 µM in experiment [2] (MCF7, MCF-7); 61.3 µM in experiment [4] (setting [11]). The IC50 in experiment [3] turned out to be 62.6 µM; in experiment [5] it was 58.2 µM; in experiment [6], 70.5 µM. Besides, the LC50 (NCI lethal concentration 50%) in experiment [4] (setting [10]) is 59.3 µM.
Regarding `Oc1ccc(C(NN=Cc2ccco2)n2ccc3ccccc32)cc1` (centres unmarked) [Compound 1c], the concentration for 50% growth inhibition (GI50) in experiment [1] was determined as 41.3 µM; in experiment [4] (HepG2), 36.3 µM. Besides, the CC50 in experiment [1] (read-out: LC50) was 0.5 µM; in experiment [2] (MCF7, read-out: LC50), 0.55 µM. Moreover, the IC (TGI) was 87.2 µM in experiment [1] and 65.3 µM in experiment [4] (HepG2, read-out: TGI). The IC50 in experiment [3] is 86.7 µM; in experiment [5], 81.1 µM; in experiment [6], 87.1 µM. Moreover, in experiment [4] (HepG2, read-out: LC50), the LC50 (NCI lethal concentration 50%) amounted to 0.9 µM.
Turning to `C(=N\NC(c1ccccc1)n1ccc2ccccc21)/c1ccco1` (centres unmarked) [Compound 1a], the CC50 in experiment [1] (read-out: LC50) is 100 µM; in experiment [2] (MCF7, read-out: LC50) it was greater than 100 µM. For the same compound, the IC50 came to 76.4 µM in experiment [3], 70.1 µM in experiment [5] and 67.5 µM in experiment [6]. Besides, in experiment [4] (HepG2), the GI50 worked out at 43.2 µM. Moreover, the LC50 (NCI lethal concentration 50%) in experiment [4] (HepG2, read-out: LC50) is greater than 100 µM. In experiment [4] (HepG2, read-out: TGI), the IC (TGI) amounted to 78.3 µM.

In general, GI50 refers to the concentration that inhibits growth by half. Broadly, the IC50 is the midpoint of a concentration-inhibition curve. A lower IC50 goes with higher potency.
